Data reported in paper PMC4885035, “Pathway for Biodegrading Nodularin (NOD) by Sphingopyxis sp. USTB-05” (Toxins, 2016).

Test system: crude enzymes (CEs) of Sphingopyxis sp. USTB-05
Type: in vitro ADME
Details: NOD 11.6 mg/L with CEs 570 mg/L protein, 30 °C, HPLC-UV 238 nm; for fate of the biodegradation product in the presence of CEs: followed to 36 h
Description: Bacterial cells of USTB-05 in the logarithmic growth phase of the third day were harvested by centrifugation at 8000 r/min for 20 min at room temperature. The bacterial pellet was subsequently washed three times with 50 mM phosphate buffer solution (PBS, pH 7.0). Afterwards, the cells were resuspended in 30 mL PBS, and then disrupted using an ultrasonic disruptor with an output power of 600 W for 15 min in an ice bath. […].
The total biodegradation reaction volume was 5 mL containing 570 mg/L, 380 mg/L, and 211 mg/L proteins in PBS in each 10 mL centrifuge tube, respectively. […]. The reaction was performed at 30 °C and 200 r/min. Samples of 500 μL for each were taken after 0, 3, 6, 12, 24, and 36 h, respectively, and then 5 μL of concentrated hydrochloric acid (36%, v/v) was added to stop the reaction. A control bottle was prepared in the same way without CEs. All samples were centrifuged at 13,000 r/min for 10 min and then the concentrations of residual NOD and its products in supernatants were analyzed using HPLC. All experiments were carried out in triplicate.
NOD and its enzymatic biodegradation products were firstly analyzed using a HPLC system (Shimadzu LC-10ATVP, Shimadzu Co., Ltd., Kyoto, Japan) with an ultraviolet (UV) Diode Array Detector at 238 nm using a Agilent TC-C18 column (4.6 mm × 250 mm) (Agilent Technologies Inc., 1200 series, Santa Clara, CA, USA). […]. The flow rate was 1 mL/min and the injection amount was 20 μL. The concentration of NOD was determined by calibration of peak area (at 238 nm) with that of the standard NOD. The biodegradation products that contained Adda were monitored by HPLC based on the assumption that their molar absorption coefficient at 238 nm is the same as NOD.

Structure (SMILES) | time at which the product peak appeared on HPLC during enzymatic biodegradation of NOD [h] | fate of the biodegradation product in the presence of CEs
CC=C(C(=O)N[C@@H](C(=O)O)[C@H](C)C(=O)N[C@@H](CCCNC(=N)N)C(=O)O)N(C)C(=O)CC[C@@H](NC(=O)[C@@H](C)[C@@H](N)/C=C/C(C)=C/[C@H](C)[C@H](Cc1ccccc1)OC)C(=O)O [product A] | 3 | completely converted to product B
CO[C@@H](Cc1ccccc1)[C@@H](C)/C=C(C)/C=C/[C@H](N)[C@H](C)C(=O)O [product B, (2S,3S,8S,9S)-3-amino-9-methoxy-2,6,8-trimethyl-10-phenyldeca-4(E),6(E)-dienoic acid] | 6 | always increased over time until 36 h
